tested on: Key Grass and Sedge Weeds as well as Grass Crops; test: Post-Emergent Test II (Table 6); format: in vivo; conditions: CYPSS (CYPES: yellow nutsedge, Cyperus esculentus), 140 g ai/ha
Protocol: Seeds or nutlets of the desired test plant species were planted in Sun Gro Metro-Mix® 360 planting mixture, which typically has a pH of 6.0 to 6.8 and an organic matter content of about 30 percent, in plastic pots with a surface area of 64 square centimeters. When required to ensure good germination and healthy plants, a fungicide treatment and/or other chemical or physical treatment was applied. The plants were grown for 7-21 days in a greenhouse with an approximate 15 h photoperiod which was maintained at about 23-29° C. during the day and 22-28° C. during the night. Nutrients and water were added on a regular basis and supplemental lighting was provided with overhead metal halide 1000-Watt lamps as necessary. The plants were employed for testing when they reached the first or second true leaf stage.
A weighed amount, determined by the highest rate to be tested, of each test compound was placed in a 25 mL glass vial and was dissolved in 4 mL of a 97:3 v/v mixture of acetone and DMSO to obtain concentrated stock solutions. […] The concentrated stock solutions obtained were diluted with 20 mL of an aqueous mixture containing acetone, water, isopropyl alcohol, DMSO, Atplus 411F crop oil concentrate, and Triton® X-155 surfactant in a 48.5:39:10:1.5:1.0:0.02 v/v ratio to obtain spray solutions containing the highest application rates. Additional application rates were obtained by serial dilution of 12 mL of the high rate solution into a solution containing 2 mL of 97:3 v/v mixture of acetone and DMSO and 10 mL of an aqueous mixture containing acetone, water, isopropyl alcohol, DMSO, Atplus 411F crop oil concentrate, and Triton X-155 surfactant in a 48.5:39:10:1.5:1.0:0.02 v/v ratio to obtain ½×, ¼×, ⅛× and 1/16× rates of the high rate. Compound requirements are based upon a 12 mL application volume at a rate of 187 liters per hectare (L/ha). Formulated compounds were applied to the plant material with an overhead Mandel track sprayer equipped with 8002E nozzles calibrated to deliver 187 L/ha over an application area of 0.503 square meters at a spray height of 18 inches (43 cm) above the average plant canopy height. Control plants were sprayed in the same manner with the solvent blank.
The treated plants and control plants were placed in a greenhouse as described above and watered by subirrigation to prevent wash-off of the test compounds. After 14 days, the condition of the test plants as compared with that of the untreated plants was determined visually and scored on a scale of 0 to 100 percent where 0 corresponds to no injury and 100 corresponds to complete kill and presented as indicated in Table A. Some of the compounds tested, application rates employed, plant species tested, and results are given in Table 5.

Row | SMILES | Visual Growth Reduction (%) 14 Days After Application, CYPSS
1 | COC(=O)c1nc(-c2ccc(Cl)c(F)c2Cl)c(F)c(N)c1Cl [Compound 19, Methyl 4-amino-3-chloro-6-(2,4-dichloro-3-fluorophenyl)-5-fluoropicolinate] | A (95-100)

same assay, conditions: DIGSA: crabgrass (Digitaria sanguinalis), 70 g ai/ha

Row | SMILES | Visual Growth Reduction (%) 14 Days After Application, DIGSA
2 | COC(=O)c1nc(-c2ccc(Cl)c(F)c2Cl)c(F)c(N)c1Cl [Compound 19, Methyl 4-amino-3-chloro-6-(2,4-dichloro-3-fluorophenyl)-5-fluoropicolinate] | E (45-59)

same assay, conditions: DIGSA: crabgrass (Digitaria sanguinalis), 140 g ai/ha

Row | SMILES | Visual Growth Reduction (%) 14 Days After Application, DIGSA
3 | COC(=O)c1nc(-c2ccc(Cl)c(F)c2Cl)c(F)c(N)c1Cl [Compound 19, Methyl 4-amino-3-chloro-6-(2,4-dichloro-3-fluorophenyl)-5-fluoropicolinate] | C (75-84)

same assay, conditions: ECHSS (ECHCG: barnyardgrass, Echinochloa crus-galli), 70 g ai/ha

Row | SMILES | Visual Growth Reduction (%) 14 Days After Application, ECHSS
4 | COC(=O)c1nc(-c2ccc(Cl)c(F)c2Cl)c(F)c(N)c1Cl [Compound 19, Methyl 4-amino-3-chloro-6-(2,4-dichloro-3-fluorophenyl)-5-fluoropicolinate] | C (75-84)

same assay, conditions: ECHSS (ECHCG: barnyardgrass, Echinochloa crus-galli), 140 g ai/ha

Row | SMILES | Visual Growth Reduction (%) 14 Days After Application, ECHSS
5 | COC(=O)c1nc(-c2ccc(Cl)c(F)c2Cl)c(F)c(N)c1Cl [Compound 19, Methyl 4-amino-3-chloro-6-(2,4-dichloro-3-fluorophenyl)-5-fluoropicolinate] | A (95-100)

same assay, conditions: ORYSS (ORYSA: rice, Oryza sativa), crop, 70 g ai/ha

Row | SMILES | Visual Growth Reduction (%) 14 Days After Application, ORYSS
6 | COC(=O)c1nc(-c2ccc(Cl)c(F)c2Cl)c(F)c(N)c1Cl [Compound 19, Methyl 4-amino-3-chloro-6-(2,4-dichloro-3-fluorophenyl)-5-fluoropicolinate] | F (30-44)

same assay, conditions: ORYSS (ORYSA: rice, Oryza sativa), crop, 140 g ai/ha

Row | SMILES | Visual Growth Reduction (%) 14 Days After Application, ORYSS
7 | COC(=O)c1nc(-c2ccc(Cl)c(F)c2Cl)c(F)c(N)c1Cl [Compound 19, Methyl 4-amino-3-chloro-6-(2,4-dichloro-3-fluorophenyl)-5-fluoropicolinate] | E (45-59)

same assay, conditions: SETFA: giant foxtail (Setaria faberi), 70 g ai/ha

Row | SMILES | Visual Growth Reduction (%) 14 Days After Application, SETFA
8 | COC(=O)c1nc(-c2ccc(Cl)c(F)c2Cl)c(F)c(N)c1Cl [Compound 19, Methyl 4-amino-3-chloro-6-(2,4-dichloro-3-fluorophenyl)-5-fluoropicolinate] | C (75-84)

same assay, conditions: SETFA: giant foxtail (Setaria faberi), 140 g ai/ha

Row | SMILES | Visual Growth Reduction (%) 14 Days After Application, SETFA
9 | COC(=O)c1nc(-c2ccc(Cl)c(F)c2Cl)c(F)c(N)c1Cl [Compound 19, Methyl 4-amino-3-chloro-6-(2,4-dichloro-3-fluorophenyl)-5-fluoropicolinate] | B (85-94)

same assay, conditions: SORVU: johnsongrass (Sorghum vulgare), 70 g ai/ha

Row | SMILES | Visual Growth Reduction (%) 14 Days After Application, SORVU
10 | COC(=O)c1nc(-c2ccc(Cl)c(F)c2Cl)c(F)c(N)c1Cl [Compound 19, Methyl 4-amino-3-chloro-6-(2,4-dichloro-3-fluorophenyl)-5-fluoropicolinate] | B (85-94)

same assay, conditions: SORVU: johnsongrass (Sorghum vulgare), 140 g ai/ha

Row | SMILES | Visual Growth Reduction (%) 14 Days After Application, SORVU
11 | COC(=O)c1nc(-c2ccc(Cl)c(F)c2Cl)c(F)c(N)c1Cl [Compound 19, Methyl 4-amino-3-chloro-6-(2,4-dichloro-3-fluorophenyl)-5-fluoropicolinate] | B (85-94)

same assay, conditions: TRZSS (TRZAS: wheat, spring, Triticum aestivum), crop, 70 g ai/ha

Row | SMILES | Visual Growth Reduction (%) 14 Days After Application, TRZSS
12 | COC(=O)c1nc(-c2ccc(Cl)c(F)c2Cl)c(F)c(N)c1Cl [Compound 19, Methyl 4-amino-3-chloro-6-(2,4-dichloro-3-fluorophenyl)-5-fluoropicolinate] | C (75-84)

same assay, conditions: TRZSS (TRZAS: wheat, spring, Triticum aestivum), crop, 140 g ai/ha

Row | SMILES | Visual Growth Reduction (%) 14 Days After Application, TRZSS
13 | COC(=O)c1nc(-c2ccc(Cl)c(F)c2Cl)c(F)c(N)c1Cl [Compound 19, Methyl 4-amino-3-chloro-6-(2,4-dichloro-3-fluorophenyl)-5-fluoropicolinate] | C (75-84)

same assay, conditions: ZEAMX: maize, corn (Zea mays), crop, 70 g ai/ha

Row | SMILES | Visual Growth Reduction (%) 14 Days After Application, ZEAMX
14 | COC(=O)c1nc(-c2ccc(Cl)c(F)c2Cl)c(F)c(N)c1Cl [Compound 19, Methyl 4-amino-3-chloro-6-(2,4-dichloro-3-fluorophenyl)-5-fluoropicolinate] | B (85-94)

same assay, conditions: ZEAMX: maize, corn (Zea mays), crop, 140 g ai/ha

Row | SMILES | Visual Growth Reduction (%) 14 Days After Application, ZEAMX
15 | COC(=O)c1nc(-c2ccc(Cl)c(F)c2Cl)c(F)c(N)c1Cl [Compound 19, Methyl 4-amino-3-chloro-6-(2,4-dichloro-3-fluorophenyl)-5-fluoropicolinate] | A (95-100)

Reference: US10765114B2, “4-amino-6-(pyridyl and 2-substitutedphenyl)-picolinates and 6-amino-2-(pyridyl and 2-substitutedphenyl)-pyrimidine-4-carboxylates and their use as herbicides” (Dow AgroSciences LLC, priority 2013, dated 2020)
